Experimental data published in paper PMC10798532, “Enhanced catalytic performance of penicillin G acylase by covalent immobilization onto functionally-modified magnetic Ni0.4Cu0.5Zn0.1Fe2O4 nanoparticles” (PLOS ONE, 2024).
Structures can show the parent of a compound that is named as a salt.

Tested on: T1, Penicillin G acylase (PGA)
T1 construct: gene pac; alpha and beta subunits arise from one precursor; E. coli is only a guess (docking used PDB 1GM8)
Assay: initial hydrolysis rates, Lineweaver-Burk; 6-APA by PDAB colorimetry at […] nm
Type: biochemical
Details: free enzyme; 20 °C; PBS, pH of kinetic run not printed (optimum pH 8.0); substrate 0.01-0.05 mol/L

Work on CC1(C)S[C@@H]2[C@H](NC(=O)Cc3ccccc3)C(=O)N2[C@H]1C(=O)O [Penicillin G potassium salt] yielded a Km of 22.7 mM.
